# Experimental data: EP1203770A1 (priority 1992, dated 1994)
# Biological target: T1, HIV-1 protease (Human immunodeficiency virus type 1 group M subtype B, UniProt P04585)
# T1 construct: The protease (or proteinase), consisting of only 99 amino acids, is among the smallest enzymes known
# Test: In vitro HIV protease inhibitory assay (HIV Protease FITC Assay)
# Type: biochemical
# Settings: for inhibition at 0.123 µM / inhibition at 0.37 µM / inhibition at 1.1 µM / inhibition at 3.3 µM / inhibition at 10 µM / inhibition at 30 µM: read-out: HIV-1 Protease % Inhib; for Ki: read-out: HIV-1 FITC Ki
# Method in brief: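 Percent inhibition was read as fluorescence after avidin-bead capture and filtration separated FITC cleavage product from biotinylated substrate. Enzyme and substrate reacted 1 h, RT, dark, at pH 5.5 (0.1 M sodium acetate, 1.0 M NaCl, 0.05% NP-40).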
SMILES,inhibition at 0.123 µM (HIV-1 Dose 0.123 uM) [%],inhibition at 0.37 µM (HIV-1 Dose 0.370 uM) [%],inhibition at 1.1 µM (HIV-1 Dose 1.100 uM) [%],inhibition at 3.3 µM (HIV-1 Dose 3.300 uM) [%],inhibition at 10 µM (HIV-1 Dose 10.000 uM) [%],inhibition at 30 µM (HIV-1 Dose 30.000 uM) [%],Ki [nM],HIV-1 Protease % Inhib (HIV-1 Dose 0.123 uM) [%],HIV-1 Protease % Inhib (HIV-1 Dose 0.370 uM) [%],HIV-1 Protease % Inhib (HIV-1 Dose 1.100 uM) [%],HIV-1 Protease % Inhib (HIV-1 Dose 3.300 uM) [%],HIV-1 Protease % Inhib (HIV-1 Dose 10.000 uM) [%],HIV-1 Protease % Inhib (HIV-1 Dose 30.000 uM) [%]
"CCC(c1ccccc1)c1cc(O)c(C(CC)c2ccccc2)c(=O)o1 (stereo not drawn) [Example 186, 3-α-Ethylbenzyl-6-α-ethylbenzyl-4-hydroxy-2H-pyran-2-one]",< 10,< 10,< 10,11,41.6,61.6,22.4,–,–,–,–,–,–
"CC[C@H](Cc1ccccc1)c1cc(O)c([C@@H](CC)c2ccccc2)c(=O)o1 [Example 189, 3-([S]-α-ethylbenzyl)-4-hydroxy-6-([R]-α-ethylphenethyl)-2H-pyran-2-one]",–,–,–,–,–,–,~15,–,–,–,–,–,–
"CC(C)CC1(CCc2ccccc2)CC(O)=C(C(c2ccccc2)c2ccccc2)C(=O)O1 (stereo not drawn) [Example 209, 2H-Pyran-2-one, 3-diphenylmethyl-5,6-dihydro-4-hydroxy-6-(2-methylpropyl)-6-(2-phenylethyl)-]",< 10,12,32.2,59.9,76.7,77.8,92,–,–,–,–,–,–
"CC(C)CC1(CCc2ccccc2)CC(O)=C(C(/C=C/c2ccccc2)c2ccccc2)C(=O)O1 (stereo not drawn) [Example 210, 2H-Pyran-2-one, 3-(1,3-diphenyl-2-propenyl)-5.6-dihydro-4-hydroxy-6-(2-methylpropyl)-6-(2-phenylethyl)-]",< 10,< 10,37.5,61,75,86,78,–,–,–,–,–,–
CC(C)CC1(CCc2ccccc2)CC(O)=C(C(CCc2ccccc2)c2ccccc2)C(=O)O1 (stereo not drawn) [Example 211],–,–,–,–,–,–,64,<10,21.39,47.29,66.35,89.15,92.11
"CCC(Cc1ccccc1)c1cc(O)c(C(c2cccc(NC(=O)Nc3ccccc3)c2)C2CC2)c(=O)o1 (stereo not drawn) [Example 212, 3-(α-Cyclopropyl-meta-[(phenylaminocarbonyl)amino]benzyl)-6-(α-ethylphenethyl)-4-hydroxy-2H-pyran-2-one]",< 10,< 10,17.8,43.2,67.1,69.6,–,–,–,–,–,–,–
"CCC(Cc1ccccc1)c1cc(O)c(C(c2cccc(NC(=O)NCc3ccccc3)c2)C2CC2)c(=O)o1 (stereo not drawn) [Example 213, 3-(α-Cyclopropyl-meta-[(benzylaminocarbonyl)amino]benzyl)-6-(α-ethylphenethyl)-4-hydroxy-2H-pyran-2-one]",< 10,12.1,30,55.4,83.7,85.8,–,–,–,–,–,–,–
"CCC(Cc1ccccc1)c1cc(O)c(C(c2cccc(NC(=O)Nc3ccc(OC)cc3)c2)C2CC2)c(=O)o1 (stereo not drawn) [Example 214, 3-(α-Cyclopropyl-meta-[(4-methoxyphenylaminocarbonyl)amino]benzyl)-6-(α-ethylphenethyl)-4-hydroxy-2H-pyran-2-one]",< 10,< 10,32,66,79.5,86,–,–,–,–,–,–,–
"CCC(Cc1ccccc1)c1cc(O)c(C(c2cccc(NC(=O)Nc3ccc(Br)cc3)c2)C2CC2)c(=O)o1 (stereo not drawn) [Example 215, 3-(α-Cyclopropyl-meta-[(4-bromophenylaminocarbonyl)amino]benzyl)-6-(α-ethylphenethyl)-4-hydroxy-2H-pyran-2-one]",< 10,< 10,< 10,16.1,23.1,28.8,–,–,–,–,–,–,–
"CCC(Cc1ccccc1)c1cc(O)c(C(c2cccc(NC(=O)NS(=O)(=O)c3ccccc3)c2)C2CC2)c(=O)o1 (stereo not drawn) [Example 216, 3-(α-Cyclopropyl-meta-[(phenylsulfonylaminocarbonyl)amino]benzyl)-6-(α-ethylphenethyl)-4-hydroxy-2H-pyran-2-one]",< 10,29.8,61.1,85.6,91.5,90.5,122,–,–,–,–,–,–
